biological target: T1, human parathyroid cell Ca^2+ receptor (hPCaR) (Homo sapiens, UniProt P41180); test: [Ca2+]i measurement with fluo-3 in HEK 293 4.0-7 cells stably transfected with hPCaR; format: cell-based; conditions: fluo-3 fluorescence (485/530 nm), effect on [Ca^2+]i
T1 construct: expressed in transfected cells
T1 sequence (P41180 20-1078): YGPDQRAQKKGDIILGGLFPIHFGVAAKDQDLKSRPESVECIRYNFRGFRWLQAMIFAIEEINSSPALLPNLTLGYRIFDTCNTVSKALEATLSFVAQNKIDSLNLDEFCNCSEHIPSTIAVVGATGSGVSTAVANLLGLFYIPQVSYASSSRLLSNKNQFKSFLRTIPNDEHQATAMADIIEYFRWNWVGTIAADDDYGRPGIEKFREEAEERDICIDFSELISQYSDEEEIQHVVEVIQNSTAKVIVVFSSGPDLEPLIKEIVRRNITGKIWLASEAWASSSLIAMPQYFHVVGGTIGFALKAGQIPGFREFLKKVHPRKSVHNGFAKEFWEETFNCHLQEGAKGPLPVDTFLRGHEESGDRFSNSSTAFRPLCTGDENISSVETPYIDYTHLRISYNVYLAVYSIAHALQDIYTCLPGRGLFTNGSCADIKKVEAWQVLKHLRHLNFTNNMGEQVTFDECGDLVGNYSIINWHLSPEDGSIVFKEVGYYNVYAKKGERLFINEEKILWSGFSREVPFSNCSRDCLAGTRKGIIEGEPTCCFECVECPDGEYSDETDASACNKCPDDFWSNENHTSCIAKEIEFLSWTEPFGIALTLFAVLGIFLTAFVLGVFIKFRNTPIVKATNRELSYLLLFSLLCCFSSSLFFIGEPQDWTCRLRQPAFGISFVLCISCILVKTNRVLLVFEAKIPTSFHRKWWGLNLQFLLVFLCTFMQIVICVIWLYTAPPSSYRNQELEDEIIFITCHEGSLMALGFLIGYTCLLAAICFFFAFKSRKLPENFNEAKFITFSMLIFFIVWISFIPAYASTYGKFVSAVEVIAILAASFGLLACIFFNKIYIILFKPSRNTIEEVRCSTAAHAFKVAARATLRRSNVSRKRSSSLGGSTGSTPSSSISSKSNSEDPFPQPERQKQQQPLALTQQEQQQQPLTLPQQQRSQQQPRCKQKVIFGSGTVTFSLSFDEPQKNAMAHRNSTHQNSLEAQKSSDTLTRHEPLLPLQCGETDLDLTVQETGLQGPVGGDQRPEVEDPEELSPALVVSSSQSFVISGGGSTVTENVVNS
Protocol: The activities of the compounds of the present invention on calcium receptors were measured. In one embodiment, the measurement was performed in accordance with the method described in Example 4 of Nemeth et al., PCT/US95/13704 (International Publication No. WO96/12697) herein incorporated by reference.
A 4.0-kb NotI-HindIII fragment of the human parathyroid cell Ca^2+ receptor (hPCaR) cDNA was subcloned into the mammalian expression vector pCEP4 (Invitrogen) containing the hygromycin-resistant gene as a selectable marker. This plasmid was transfected into HEK 293 cells by calcium phosphate precipitation. Transfected cells were grown in Dulbecco's modified Eagle's medium containing 10% fetal bovine serum and hygromycin (200 μg/mL). Hygromycin-resistant colonies were subcloned and assayed for hPCaR mRNA by solution hybridization using a ^32P-labeled RNA probe complementary to the (4.0 kb) hPCaR sequence (Garrett, et al., J. Biol. Chem. 270, 12919-12925 (1995)). Clone 7 was used to assess the effects of compounds on [Ca^2+]i. This stably transfected cell line is termed HEK 293 4.0-7. For measurements of [Ca^2+]i, the cells were recovered from tissue culture flasks by brief treatment with 0.02% EDTA and then washed and resuspended in PCB containing 1 mM CaCl2 and 0.1% Bovine Serum Albumin (“BSA”). The cells were loaded with fluo-3 by incubation for 30 min at 37° C., with parathyroid cell buffer (126 mM NaCl, 4 mM KCl, 1 mM MgSO4, 0.7 mM K2HPO/KH2PO4, 20 mM HEPES.NaOH (pH 7.45)) containing 0.5% BSA in lmM CaCl2 and 2 μM fluo-3 acetoxymethyl ester. The cells were subsequently washed, each test compound was added to the cells and the fluorescence was recorded by using excitation and emission wavelengths of 485 and 530 nm, respectively.

EC50, ≤ 10 µM:
CCOC(=O)c1ccc(-c2cc(CN[C@H](C)c3ccccc3)ccc2OC)cc1 [ethyl 2′-(methyloxy)-5′-((((1R)-1-phenylethyl)amino)methyl)-1,1′-biphenyl-4-carboxylate]
COc1ccc(CN[C@H](C)c2ccccc2)cc1-n1cccc1 [(1R)-N-((4-(methyloxy)-3-(1H-pyrrol-1-yl)phenyl)methyl)-1-phenylethanamine]
CCOc1ccc(-c2cc(CN[C@H](C)c3cccc4ccccc34)ccc2OC)cn1 [(1R)-N-((3-(6-(ethyloxy)-3-pyridinyl)-4-(methyloxy)phenyl)methyl)-1-(1-naphthalenyl)ethanamine]
COc1ccc(CN[C@H](C)c2ccccc2)cc1-c1ccc2c(ccn2CC(F)(F)F)c1 [(1R)-N-((4-(methyloxy)-3-(1-(2,2,2-trifluoroethyl)-1H-indol-5-yl)phenyl)methyl)-1-phenylethanamine]
COc1ccc(CN[C@H](C)c2ccccc2)cc1-c1csc(N2CCCCC2)n1 [(1R)-N-((4-(methyloxy)-3-(2-(1-piperidinyl)-1,3-thiazol-4-yl)phenyl)methyl)-1-phenylethanamine]
C[C@@H](NCc1cccc(-c2cncc(C(N)=O)c2)c1)c1cccc2ccccc12 [Example 460, 5-(3-((((1R)-1-(1-naphthalenyl)ethyl)amino)methyl)phenyl)-3-pyridinecarboxamide]
COc1ccc(-c2cc(CN[C@H](C)c3cccc(OC)c3)ccc2OC)nc1 [(1R)-N-((4-(methyloxy)-3-(5-(methyloxy)-2-pyridinyl)phenyl)methyl)-1-(3-(methyloxy)phenyl)ethanamine]
COc1cccc([C@@H](C)NCc2ccc(I)c(-c3ccc(C(F)(F)F)cc3)c2)c1 [(1R)-N-((6-iodo-4′-(trifluoromethyl)-1,1′-biphenyl-3-yl)methyl)-1-(3-(methyloxy)phenyl)ethanamine]
COc1cccc([C@@H](C)NCc2ccc(OC)c(-c3ccc4nonc4c3)c2)c1 [(1R)-N-((3-(2,1,3-benzoxadiazol-5-yl)-4-(methyloxy)phenyl)methyl)-1-(3-(methyloxy)phenyl)ethanamine]
COc1cccc([C@@H](C)NCc2ccc(OC)c(C3CCN(C)CC3)c2)c1 [(1R)-N-((4-(methyloxy)-3-(1-methyl-4-piperidinyl)phenyl)methyl)-1-(3-(methyloxy)phenyl)ethanamine]
COc1ccc(CN[C@H](C)c2ccccc2)cc1-c1ccc2c(c1)OC(F)(F)O2 [(1R)-N-((3-(2,2-difluoro-1,3-benzodioxol-5-yl)-4-(methyloxy)phenyl)methyl)-1-phenylethanamine]
COc1cccc(-c2cccc(CN[C@H](C)c3ccccc3)c2)c1 [(1R)-N-((3′-(methyloxy)-1,1′-biphenyl-3-yl)methyl)-1-phenylethanamine]
CC(=O)Nc1cccc(-c2cccc(CN[C@H](C)c3ccccc3)c2)c1 [N-(3′-((((1R)-1-phenylethyl)amino)methyl)-1,1′-biphenyl-3-yl)acetamide]
C[C@@H](NCc1cccc(-c2ccc3c(c2)OCO3)c1)c1ccccc1 [(1R)-N-((3-(1,3-benzodioxol-5-yl)phenyl)methyl)-1-phenylethanamine]
COc1ccc(-c2cccc(CN[C@H](C)c3ccc(OC)cc3)c2)cc1 [(1R)-N-((4′-(methyloxy)-1,1′-biphenyl-3-yl)methyl)-1-(4-(methyloxy)phenyl)ethanamine]
COc1cccc([C@@H](C)NCc2ccc(OC)c(-c3ccc(OC(F)(F)F)cc3)c2)c1 [(1R)-1-(3-(methyloxy)phenyl)-N-((6-(methyloxy)-4′-((trifluoromethyl)oxy)-1,1′-biphenyl-3-yl)methyl)ethanamine]
CC(=O)Nc1ccc(-c2cccc(CN[C@H](C)c3cccc4ccccc34)c2)cn1 [N-(5-(3-((((1R)-1-(1-naphthalenyl)ethyl)amino)methyl)phenyl)-2-pyridinyl)acetamide]
